Assay results reported in patent publication US7449315B2, “Bifunctional energy-reversible acyl-compositions” (Cryolife, Inc., priority 2002, dated 2008).

Assays:
Human thrombin = Human thrombin (Homo sapiens, UniProt P00734); assay: Inhibition and light reactivation of thrombin by R-NH-CINN-AP inhibitors, S-2238 chromogenic assay; format: biochemical; settings: for Inhibition after 16 Hrs Incubation (%): ambient temperature, dark; for Light Reactivation (%): after 10 seconds of blue light, activity light/activity control
Method: (§1) R is -tBOC, —H2^+, or mPEG5000. Human thrombin was modified with R—NH-CINN-AP inhibitors as follows: Thrombin (600 units; ˜3.5 nmol) in 50 mM sodium citrate buffer, 3 mM CaCl2, 7% kollidon, pH 7.0, was reacted with 3.5-35 nmol of the R—N-CINN-AP inhibitor for 12-18 hours at ambient temperature in the dark. Thrombin activities were measured under red light (“dark”) and after exposure to 10 seconds of blue light from a dental light and were assayed using S-2238 (diaPharma) at 30° C. Percentage inhibition was calculated as 100—dark activity. Dark activity was calculated as [activitydark÷activitycontrol]×100. Light reactivation was calculated as activitylight÷activtycontrol. The following are typical results.

Human tPA (Activase) = molecular target: T1, Human tPA (Activase) (Homo sapiens, UniProt P00750); assay: Inhibition and light reactivation of tPA by Rz-NH-CINN-AP inhibitors, S-2288 chromogenic assay; format: biochemical; settings: for Inhibition after 16 hrs incubation (%): ambient temperature, dark; for Light Reactivation (%): after blue light
T1 construct: purchased Genentech Inc. Lot # E9034A
Method: as §1
R2 is -tBOC, —-H2^+, or mPEG5000. The procedures of Examnple 4 was repeated except that Human tPA (Activase, Genentech Inc. Lot # E9034A) was modified with Rz—NH-CINN-AP inhibitors in place of thrombin. The reactions were carried out as follows: tPA (0.83 nmol) in 10 mM tris-HCl, 130 mM NaCl, pH 7.4 was reacted with 0.8 3-8.3 nmoles of the R—NH CINN-AP inhibitors for 12-18 hours at ambient temperature in the dark. Activities were calculated as for Example 4, using S-2288 (diaPharna).

[1] = Solubility in aqueous solution after removal of t-BOC; format: physicochemical; settings: neutralized to pH 7.0
Method: 3-[2-hydroxy-4-(ethyl)(2-tert-butyloxycarbamidoethyl)amino]phenyl-2-methylpropenoic acid, 4-aminoiminophenyl ester, HCl salt (15; 12 mg, 25 μmmol) was suspended in 1.2 ml of 3N HCl and mixed by inversion for 3 hours at ambient temperature to release the t-BOC group and generate 3-[2-hydroxy-4-(ethyl) aminoethyl)amino]phenyl-2-methylpropenoic acid, 4-aminoiminophenyl ester, HCl salt (16; N-CINN-AP). After 3 hours, the reaction was neutralized with 3N NaOH to give a final pH of 7.0.

T1 sequence (P00750 36-562): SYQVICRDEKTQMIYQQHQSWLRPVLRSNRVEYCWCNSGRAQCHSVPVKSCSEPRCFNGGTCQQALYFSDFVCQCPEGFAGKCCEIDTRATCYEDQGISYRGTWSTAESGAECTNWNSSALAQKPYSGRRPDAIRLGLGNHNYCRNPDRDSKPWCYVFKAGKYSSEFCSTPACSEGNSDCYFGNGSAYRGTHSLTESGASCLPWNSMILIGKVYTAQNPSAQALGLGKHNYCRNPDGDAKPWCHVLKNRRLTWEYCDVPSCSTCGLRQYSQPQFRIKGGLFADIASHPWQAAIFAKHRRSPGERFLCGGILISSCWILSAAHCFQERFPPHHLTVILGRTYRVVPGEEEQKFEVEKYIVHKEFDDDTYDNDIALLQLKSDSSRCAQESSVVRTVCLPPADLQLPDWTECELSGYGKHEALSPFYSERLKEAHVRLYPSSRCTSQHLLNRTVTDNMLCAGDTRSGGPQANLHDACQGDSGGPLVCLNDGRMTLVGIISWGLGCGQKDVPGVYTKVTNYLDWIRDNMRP

| Compound | Inhibition after 16 Hrs Incubation (%) (Human thrombin; inhibitor excess 1×) | Inhibition after 16 Hrs Incubation (%) (Human thrombin; inhibitor excess 5×) | Light Reactivation (%) (Human thrombin; inhibitor excess 10×) | Inhibition after 16 Hrs Incubation (%) (Human thrombin; inhibitor excess 10×) | Inhibition after 16 hrs incubation (%) (Human tPA (Activase); inhibitor excess 5×) | Light Reactivation (%) (Human tPA (Activase); inhibitor excess 10×) | Inhibition after 16 hrs incubation (%) (Human tPA (Activase); inhibitor excess 10×) | Thrombin inhibition (in words) (Human thrombin; summary of Table 1) | tPA inhibition (in words) (Human tPA (Activase); Table 2) | Solubility (in words) [1] |
| --- | --- | --- | --- | --- | --- | --- | --- | --- | --- | --- |
| CCN(CCNC(=O)OC(C)(C)C)c1ccc(C=C(C)C(=O)Oc2ccc(C(=N)N)cc2)c(O)c1.Cl [#15, 3-[2-hydroxy-4-(ethyl)(2-tert-butyloxycarbamidoethyl)amino]-phenyl-2-methylpropenoic acid, 4-aminoiminophenyl ester, HCl salt] | 94 | 98 | 72 | 97 | 95 | 87 | 95 |  |  |  |
| CCN(CCN)c1ccc(C=C(C)C(=O)Oc2ccc(C(=N)N)cc2)c(O)c1.Cl [#16] | 21 | 70 | 64 | 96 | 78 | 78 | 88 | less effective inhibitor at lower molar ratios | less effective inhibitor at lower molar ratios | soluble in aqueous solution |
